Measured values from ChEMBL document CHEMBL1201862, “PubChem BioAssay data set” (2004).
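Test compounds were applied to cells in 96-well plates for 48 hours at 5 doses. GI50 = concentration required for 50% inhibition of growth.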 The source made the active and inactive calls. Cut-off read from the data, not from the text of the source: active = GI50 up to about 1.1 µM and inactive = higher.

Experiments:
Assay in all cases: DTP human tumour cell line panel, 48 h
[1] = system: A498
[2] = system: SN12C
[3] = system: SK-MEL-5
[4] = system: DU-145
[5] = system: IGROV-1
[6] = system: HL-60
[7] = system: HOP-92
[8] = system: CAKI-1
[9] = system: MDA-N
[10] = system: TK-10
[11] = system: COLO 205
[12] = system: SNB-19
[13] = system: HT-29
[14] = system: MDA-MB-231
[15] = system: Hs-578T
[16] = system: RXF 393
[17] = system: NCI-H23
[18] = system: SF-539
[19] = system: A549
[20] = system: Malme-3M

Compound | GI50 [1] | GI50 [2] | GI50 [3] | GI50 [4] | GI50 [5] | GI50 [6] | GI50 [7] | GI50 [8] | GI50 [9] | GI50 [10] | GI50 [11] | GI50 [12] | GI50 [13] | GI50 [14] | GI50 [15] | GI50 [16] | GI50 [17] | GI50 [18] | GI50 [19] | GI50 [20]
CCOC(=O)c1c(Sc2ccc([N+](=O)[O-])cc2[N+](=O)[O-])nc2c3ccccc3ccn12 | 62.8 µM (inactive) | 99.1 µM (inactive) | 80.2 µM (inactive) | > 100 µM (inactive) | > 31.6 µM (inactive) | 11.5 µM (inactive) | 13.9 µM (inactive) | 15.6 µM (inactive) | > 100 µM (inactive) | > 55.7 µM (inactive) | > 100 µM (inactive) | > 68.1 µM (inactive) | > 100 µM (inactive) | 29.1 µM (inactive) | 13.8 µM (inactive) | 21 µM (inactive) | > 91 µM (inactive) | 15 µM (inactive) | > 100 µM (inactive) | 
O=C1CCC[C@@H]2NC[C@@H](c3ccc4c(c3)OCO4)[C@H]12 | > 25 µM (inactive) | > 25 µM (inactive) | > 25 µM (inactive) | > 25 µM (inactive) | > 25 µM (inactive) | > 25 µM (inactive) | > 25 µM (inactive) | > 25 µM (inactive) | > 25 µM (inactive) | > 25 µM (inactive) | > 25 µM (inactive) | > 25 µM (inactive) | > 25 µM (inactive) | > 25 µM (inactive) | > 25 µM (inactive) | > 25 µM (inactive) | > 25 µM (inactive) |  | > 25 µM (inactive) | > 25 µM (inactive)
Nc1nc(I)nc2c1ncn2C1OC(COS(N)(=O)=O)C(O)C1O (stereo not given) | < 0.01 µM (active) | < 0.01 µM (active) | < 0.01 µM (active) | < 0.01 µM (active) | 0.0128 µM (active) |  | < 0.0142 µM (active) | 0.0336 µM (active) | < 0.01 µM (active) | 0.0102 µM (active) | < 0.01 µM (active) | < 0.01 µM (active) | < 0.0106 µM (active) | < 0.01 µM (active) | < 0.01 µM (active) | 0.0148 µM (active) | < 0.01 µM (active) | < 0.01 µM (active) | 0.0275 µM (active) | < 0.01 µM (active)
N=C(N)SCc1ccc2c(c1)S(=O)(=O)c1ccccc1O2 | 17.5 µM (inactive) | 37.5 µM (inactive) |  | 32.4 µM (inactive) | 16.4 µM (inactive) | 14.9 µM (inactive) | 15.7 µM (inactive) | 21.3 µM (inactive) | 17.7 µM (inactive) | 15.7 µM (inactive) | 29 µM (inactive) | 61.1 µM (inactive) | 15.6 µM (inactive) | 39.8 µM (inactive) | 22.9 µM (inactive) | 21.2 µM (inactive) | 19.1 µM (inactive) | 26.1 µM (inactive) | 19 µM (inactive) | 
Cc1cc2c(cc1C)[n+]([O-])c(N1CCN(c3ccc([N+](=O)[O-])cc3)CC1)c(C#N)[n+]2[O-] | 35 µM (inactive) | 35.3 µM (inactive) | 75.7 µM (inactive) | 32.8 µM (inactive) | 25.3 µM (inactive) | > 100 µM (inactive) | 23.2 µM (inactive) | 83 µM (inactive) | > 100 µM (inactive) | 15 µM (inactive) | > 100 µM (inactive) | 18 µM (inactive) | > 100 µM (inactive) | 20 µM (inactive) | 34.6 µM (inactive) | 13 µM (inactive) | 25.6 µM (inactive) |  | 29.8 µM (inactive) | 69.5 µM (inactive)
CCOC(=O)c1c(C)nc2c(c1-c1cn(-c3ccccc3)nc1-c1ccccc1)C(=O)c1ccccc1-2 | > 100 µM (inactive) | > 100 µM (inactive) | > 100 µM (inactive) | > 100 µM (inactive) | > 100 µM (inactive) |  | > 100 µM (inactive) | > 100 µM (inactive) | > 100 µM (inactive) | > 100 µM (inactive) | > 100 µM (inactive) | > 100 µM (inactive) | 13.8 µM (inactive) | > 100 µM (inactive) | > 100 µM (inactive) | > 100 µM (inactive) | > 100 µM (inactive) |  | > 100 µM (inactive) | > 100 µM (inactive)
C=C1C(=O)OC2/C=C(/C)C(OC(C)=O)C/C=C(\C)C(OC(=O)C3(C)OC3C)C(O)C12 (stereo not given) | > 100 µM (inactive) | > 100 µM (inactive) | > 100 µM (inactive) | > 100 µM (inactive) | > 100 µM (inactive) | 30.3 µM (inactive) | > 100 µM (inactive) | 65.8 µM (inactive) | > 100 µM (inactive) | > 100 µM (inactive) | 55.7 µM (inactive) | > 100 µM (inactive) | > 100 µM (inactive) | > 100 µM (inactive) | > 100 µM (inactive) | > 100 µM (inactive) | > 100 µM (inactive) | > 100 µM (inactive) | > 100 µM (inactive) | 
O=C(Cn1c2ccc(Br)cc2c2nc3ccccc3nc21)Nc1ccccc1 | 34 µM (inactive) | 42.6 µM (inactive) | 34.6 µM (inactive) | 59.2 µM (inactive) | 15.3 µM (inactive) |  | 14.1 µM (inactive) | 26.8 µM (inactive) | 37.7 µM (inactive) | 27.7 µM (inactive) | 50.6 µM (inactive) | 39.7 µM (inactive) | 24.8 µM (inactive) | 13.3 µM (inactive) | 26.7 µM (inactive) | 20.2 µM (inactive) | 28 µM (inactive) |  | 17 µM (inactive) | 28.6 µM (inactive)
COc1ccc2c(c1)OC1c3ccccc3OCC21 (stereo not given) | > 100 µM (inactive) | > 100 µM (inactive) | 24.7 µM (inactive) | > 100 µM (inactive) | > 100 µM (inactive) | 34.6 µM (inactive) | 61.8 µM (inactive) | > 100 µM (inactive) | 36.6 µM (inactive) | > 100 µM (inactive) | > 100 µM (inactive) | 93.3 µM (inactive) | 25.6 µM (inactive) | > 100 µM (inactive) | > 100 µM (inactive) | 77.4 µM (inactive) | 61.4 µM (inactive) | > 100 µM (inactive) |  | 
O=C(O)CCCc1ccc2ccccc2c1 | > 100 µM (inactive) | > 100 µM (inactive) | > 100 µM (inactive) | > 100 µM (inactive) | > 100 µM (inactive) | > 100 µM (inactive) | > 100 µM (inactive) | > 100 µM (inactive) | > 100 µM (inactive) | > 100 µM (inactive) | > 100 µM (inactive) | > 100 µM (inactive) | > 100 µM (inactive) | > 100 µM (inactive) | > 100 µM (inactive) | > 100 µM (inactive) | > 100 µM (inactive) | > 100 µM (inactive) | > 100 µM (inactive) | 
CC(C)=CCC/C(C)=C/CC/C(C)=C/CSc1ccccc1C(=O)O [SALIRASIB] | 23.7 µM (inactive) | 23.3 µM (inactive) | 14.8 µM (inactive) | 18.2 µM (inactive) | 16.5 µM (inactive) | 29.7 µM (inactive) | 25.9 µM (inactive) | 22.1 µM (inactive) | 22.3 µM (inactive) | 28.4 µM (inactive) | 23.6 µM (inactive) | 21 µM (inactive) | 20.5 µM (inactive) | 22.6 µM (inactive) | 17.8 µM (inactive) | 27.2 µM (inactive) | 18.2 µM (inactive) | 17.5 µM (inactive) | 20.7 µM (inactive) | 
